Measured values published in PubChem BioAssay (NCI).
Where “and” joins values, the source holds several entries; their conditions need not be identical. Identical values can stand only once.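 Assay format: 96-well plates, 48-hour exposure. GI50 = concentration required for 50% inhibition of growth. The concentration for full growth arrest is given as TGI.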

Assays:
Test in all cases: inhibition of tumour cell growth, NCI panel, 48 h
[1] = system: SK-MEL-5 melanoma
[2] = system: COLO 205 colon
[3] = system: LOX IMVI melanoma
[4] = system: OVCAR-5 ovarian
[5] = system: SF-295 CNS
[6] = system: CCRF-CEM leukemia
[7] = system: SK-MEL-28 melanoma
[8] = system: OVCAR-3 ovarian
[9] = system: NCI/ADR-RES ovarian
[10] = system: MDA-MB-435

Row | Compound | TGI [1] | TGI [2] | TGI [3] | TGI [4] | TGI [5] [µM] | TGI [6] [µM] | TGI [7] | TGI [8] | GI50 [1] [µM] | GI50 [2] [µM] | GI50 [3] [µM] | GI50 [4] [µM] | GI50 [5] [µM] | GI50 [6] [µM] | GI50 [7] [µM] | GI50 [8] [µM] | TGI [9] [µM] | TGI [10] [µM] | GI50 [9] [µM] | GI50 [10] [µM]
1 | NC(=O)/N=C1/CCC2C3CCCC2C13 | > 100 µM | > 100 µM | > 100 µM | > 100 µM | > 100 | > 100 | > 100 µM | > 100 µM | – | – | – | – | – | – | – | – | – | – | – | –
2 | CCC[CH2][Sn]1([CH2]CCC)[O]CC(CN(C)Cc2ccccc2)[O]1 (centres undefined) | 24.3 µM | 16 µM | 16.2 µM | 25.3 µM | 22.4 | 8.09 | 26.5 µM | 18.4 µM | 11.9 | 5.31 | 4.12 | 12.7 | 9.13 | 2.37 | 13.3 | 6.35 | – | – | – | –
3 | O=[P+](O)c1ccsc1 | > 100 µM | > 100 µM | > 100 µM | – | – | > 100 | > 100 µM | – | – | – | – | – | – | – | – | – | – | – | – | –
4 | C[C@]12CC/C(=N\O)C=C1CC[C@@H]1C2CC[C@@]2(C)C1CC[C@@H]2OC1CCCCO1 (some centres undefined) | > 100 µM | 32.6 µM | 37.4 µM | 29 µM | 35.8 | – | 42.4 µM | 31.9 µM | – | – | – | – | – | – | – | – | – | – | – | –
5 | CC(C)([NH-])CO.CC(C)([NH-])CO.[Cl][Cd][Cl] | – | 55.8 µM | – | 30.5 µM | > 100 | 38.8 | 30.1 µM | 38 µM | 4.47 | 26.1 | – | 16.8 | > 100 | 15.9 | 16.5 | 20.2 | – | – | – | –
6 | Cn1cnc([N+](=O)[O-])c1Sc1nccn1-c1cccc2ccccc12 | > 100 µM | 30.3 µM | 32.4 µM | 76.1 µM | > 100 | 68.5 | 67.8 µM | 75.2 µM | – | – | – | – | – | – | – | – | – | – | – | –
7 | Cc1cccc(C(C)(C)C)c1NC(=O)CC1C(=O)Nc2ccccc2S1(=O)=O (centres undefined) | 24.9 µM | – | 18.6 µM | 27 µM | 20 | 7.8 | 30.3 µM | 18.1 µM | – | – | – | – | – | – | – | – | – | – | – | –
8 | CC(=O)C1C(c2ccc(N(C)C)cc2)c2cc3c(cc2OC1(C)O)OCO3 (centres undefined) | 93 µM | > 100 µM | > 100 µM | – | 71.2 | > 100 | > 100 µM | > 100 µM | – | – | – | – | – | – | – | – | – | – | – | –
9 | C/C(=N\NS(=O)(=O)c1ccc(C)cc1)P(=O)(O)O | > 100 µM | > 100 µM | > 100 µM | > 100 µM | > 100 | – | > 100 µM | > 100 µM | – | – | – | – | – | – | – | – | > 100 | > 100 | – | –
10 | CCC/C(=N\NC(=S)N1CC2CCC(CC2)C1)c1ccccn1 | 0.757 µM and 0.483 µM | 0.0997 µM and 0.281 µM | 4.31 µM and 2.13 µM | 5.64 µM and 3 µM | 1.2 | – | 5.16 µM and 1.29 µM | 0.872 µM and 0.622 µM | 0.0467 | 0.0138 | 0.0199 | 1.25 | 0.114 | – | 0.0479 | 0.0246 | – | 3.24 | – | –
11 | COC(=O)C(C(=O)OC)C1CCCC(=O)C1 (centres undefined) | > 100 µM | > 100 µM | > 100 µM | > 100 µM | > 100 | > 100 | > 100 µM | > 100 µM | – | – | – | – | – | – | – | – | – | – | – | –
12 | Cc1ccc(NC(=O)CC2Sc3ccccc3NC2=O)c(C)c1 (centres undefined) | 30.9 µM | 38.7 µM | > 100 µM | 73 µM | 40.2 | 78.4 | 75.9 µM | 28.6 µM | – | – | – | – | – | – | – | – | – | – | – | –
13 | O=C(c1ccccc1)C1OC12C(=O)Nc1c(Cl)cc(Cl)cc12 (centres undefined) | > 100 µM | 41 µM | > 61.7 µM | > 100 µM | > 100 | 27.2 | > 100 µM | > 100 µM | – | – | – | – | – | – | – | – | – | – | – | –
14 | CCN(CC)CC(O)CNc1c2ccc([N+](=O)[O-])cc2nc2cc(OC)c(OC)cc12 (centres undefined) | 0.769 µM | – | 0.662 µM | 2.55 µM | 2.06 | 10.4 | 1.93 µM | 0.543 µM | 0.273 | – | 0.238 | 0.306 | 0.41 | 0.517 | 0.47 | 0.207 | 18.7 | 1.42 | 4.63 | 0.374
15 | Cc1ccc(S(=O)(=O)NC2(C=O)CCCC3CCCCC32)cc1 (centres undefined) | > 100 µM | > 100 µM | – | – | – | > 100 | > 100 µM | > 100 µM | – | – | – | – | – | – | – | – | – | – | – | –
16 | O=C(Nc1ccc(Cl)c(Cl)c1)Nc1c(Oc2ccc(Cl)c(Cl)c2)ccc(Cl)c1S(=O)(=O)O | 3.11 µM | > 100 µM | > 100 µM | > 100 µM | – | > 100 | > 100 µM | – | 1.33 | 2.39 | 1.96 | 4.09 | – | 4.03 | 4.05 | – | > 100 | – | 0.959 | –
17 | Nc1nc2c(ncn2C2C=CC(CO)C2)c(=O)[nH]1 (centres undefined) | > 100 µM | > 100 µM | – | > 100 µM | > 100 | – | > 100 µM | > 100 µM | – | – | – | – | – | – | – | – | > 100 | > 100 | – | –
18 | CN1C(=O)C2C3C=C4c5ccccc5N(c5ccccc5)C4(C2C1=O)[C@H]1C(=O)N(C)C(=O)[C@@H]31 (some centres undefined) | – | > 100 µM | > 100 µM | > 100 µM | > 100 | > 100 | > 100 µM | > 100 µM | – | – | – | – | – | – | – | – | – | – | – | –
19 | CC(Nc1ccc(S(=O)(=O)N=C(N)N)cc1)c1c2ccccc2nc2ccccc12 (centres undefined) | – | > 100 µM | > 100 µM | > 100 µM | > 100 | 60.5 | > 100 µM | > 10 µM | – | – | – | – | – | – | – | – | – | – | – | –
20 | CC12CCC3(OCCO3)C(OC(=O)c3ccccc3)=C1CCC21OCCO1 (centres undefined) | > 100 µM | > 100 µM | > 100 µM | > 100 µM | > 100 | > 100 | > 100 µM | > 100 µM | – | – | – | – | – | – | – | – | – | – | – | –
21 | O=C(COc1cc(O)c2c(=O)cc(-c3ccccc3)oc2c1)Nc1ccccc1C(F)(F)F | 25.4 µM | > 100 µM | 22.6 µM | > 100 µM | 9.13 | 64.1 | – | 4.12 µM | 4.1 | 8.04 | 4.74 | 7.18 | 2.94 | 19.6 | – | 2.12 | 22.5 | > 100 | 3.45 | 6.03
